The values that follow come from US12310365B2 (priority 2009, dated 2025).

Common to all, as to type: in vivo
Test [1] has as its system Botrytis cinerea (Diethofencarb-resistant strain). As to the kind of experiment: Tomato gray mold preventive test (Diethofencarb-resistant strain).
Test [2] relates to Sphaerotheca fuliginea. As to the kind of experiment: Cucumber powdery mildew preventive test. Conditions: Podosphaera fuliginea, topical, 168 h; for pest or weed control at 20 ppm: treatment concentration 20 ppm; for pest or weed control at 10 ppm: treatment concentration 10 ppm.
The test system of test [3] is Sphaerotheca fuliginea. As to the kind of experiment: Cucumber powdery mildew curative test. Conditions: Podosphaera fuliginea, topical, 168 h; for pest or weed control at 20 ppm: treatment concentration 20 ppm; for pest or weed control at 10 ppm: treatment concentration 10 ppm.
In test [4] the test system is Pseudoperonospora cubensis. As to the kind of experiment: Cucumber downy mildew curative test. Conditions: single ingredient; for pest or weed control at 20 ppm: treatment concentration 20 ppm.
Test [5] concerns Pseudoperonospora cubensis. As to the kind of experiment: Cucumber downy mildew preventive test. Conditions: for pest or weed control at 20 ppm: treatment concentration 20 ppm.
The next test concerns Pyricularia oryzae. Put plainly: whole plant or invertebrate. Conditions: topical, 168 h, read-out: Control value.
Setting [6] is: Botrytis cinerea, topical, 48 h, read-out: Control value.
Where [7] appears, read: treatment concentration 7.5 ppm.
The mark [8] stands for this setting: Pseudoperonospora cubensis, topical, 168 h, treatment concentration 10 ppm.
Where [9] appears, read: treatment concentration 160 ppm.
[10] abbreviates: Pseudoperonospora cubensis, topical, 168 h.
Setting [11] is: treatment concentration 55.3 ppm.
The mark [12] stands for this setting: treatment concentration 1.7 ppm.
Setting [13] is: Pseudoperonospora cubensis, topical, 168 h, treatment concentration 9.4 ppm.
Where [14] appears, read: treatment concentration 4.4 ppm.

For the compound `N#Cc1c[nH]cc1-c1cccc2c1OC(F)(F)O2` [Fludioxonil], the pest or weed control at 20 ppm in test [1] (setting [6]) came to 67%. Regarding `CC1(C(=O)Nc2ccc(O)c(Cl)c2Cl)CCCCC1` [Fenhexamid], the pest or weed control at 50 ppm in test [1] (setting [6]) is 50%. With `CC#Cc1cc(C)nc(Nc2ccccc2)n1` [Mepanipyrim], the pest or weed control at 20 ppm in the test with Sphaerotheca fuliginea [2] worked out at 0%; with Sphaerotheca fuliginea [3], 75%. On to Mancozeb, for which the Control value worked out at 67 in test [4] (setting [7]) and 60 in test [5] (setting [7]).

`CC1(C)COC(C)(CCCc2ccc(Cl)cc2)N1C(=O)n1ccnc1.CC1(C)COC(C)(CCCc2ccc(Cl)cc2)N1C(=O)n1ccnc1.O=C(O)/C=C/C(=O)O` (stereo not drawn) [Oxpoconazole fumarate] had a Control value in test [1] (treatment concentration 10 ppm) of 0.

With `CC(C)CC(C)c1sccc1NC(=O)c1cn(C)nc1C(F)(F)F` (stereo not drawn) [Penthiopyrad], in test [1] (setting [6]), the pest or weed control at 10 ppm was found to be 33%. Take `C[Si](C)(C)CC(O)(Cn1cncn1)c1ccc(F)cc1` (stereo not drawn) [Simeconazole]: the values for the pest or weed control at 10 ppm (in test [1] (setting [6]); with Sphaerotheca fuliginea [2]; in the test with Sphaerotheca fuliginea [3]) were 33%, 0% and 33%, respectively.

As to `CC(C)OC(=O)N[C@H](C(=O)N[C@H](C)c1nc2ccc(F)cc2s1)C(C)C` [Benthiavalicarb-isopropyl], the pest or weed control at 10 ppm in test [4] (setting [8]) came out at 67%; in test [5] (setting [8]) it was 40%.

On to Iminoctadine trialbesilate, for which the Control value in test [1] (treatment concentration 40 ppm) came out at 67.

Regarding `CC12CC1(C)C(=O)N(c1cc(Cl)cc(Cl)c1)C2=O` (stereo not drawn) [Procymidone], the pest or weed control at 50 ppm in test [1] (setting [6]) was determined as 17%. For Fosetyl-aluminium, the Control value in test [4] (setting [9]) is listed as 67; in test [5] (setting [9]) it was 60. In the case of `CCCCC(O)(Cn1cncn1)c1ccc(Cl)cc1Cl` (stereo not drawn) [Hexaconazole], the pest or weed control at 2 ppm in the test on Sphaerotheca fuliginea [2] (treatment concentration 2 ppm) came out at 17%; in the test with Sphaerotheca fuliginea [3] (treatment concentration 2 ppm), 75%. As to `O=C(Nc1ccccc1-c1ccc(Cl)cc1)c1cccnc1Cl` [Boscalid], the pest or weed control at 50 ppm in test [1] (setting [6]) is 17%. For the compound Maneb, the Control value in test [1] (treatment concentration 177.5 ppm) was 17. For the compound `CCCOC/C(=N\c1ccc(Cl)cc1C(F)(F)F)n1ccnc1` [Triflumizole], the values for the pest or weed control at 6 ppm with Sphaerotheca fuliginea [2] (treatment concentration 6 ppm) and in the test with Sphaerotheca fuliginea [3] (treatment concentration 6 ppm) were 33% and 67%, respectively. Turning to `Clc1ccc(CSC(Cn2cncn2)=Nc2ccc(Cl)cc2Cl)cc1` [Imibenconazole], the results for the pest or weed control at 15 ppm with Sphaerotheca fuliginea [2] (treatment concentration 15 ppm) and with Sphaerotheca fuliginea [3] (treatment concentration 15 ppm) were 33% and 75%, respectively. Regarding `CCNC(=O)NC(=O)/C(C#N)=N/OC` [Cymoxanil], the pest or weed control at 20 ppm in test [4] (setting [10]) is 67%; in test [5] (setting [10]) it was 60%.

In the case of `CC(C)OC(=O)N[C@H](CNC(=O)c1cc2ccccc2o1)C(C)C` [Compound 2003, Isopropyl ((1S)-1-{[(1-benzofuran-2-ylcarbonyl)amino]methyl}-2-methyl-propyl)carbamate], the pest or weed control at 5 ppm in the test with Pyricularia oryzae is 50%. On to `O=[N+]([O-])c1cc(C(F)(F)F)c(Cl)c([N+](=O)[O-])c1Nc1ncc(C(F)(F)F)cc1Cl` [Fluazinam], for which the pest or weed control at 20 ppm in test [1] (setting [6]) turned out to be 0%. For the compound `Cc1ccc(C(=O)NC[C@H](C)NC(=O)OCC(F)(F)F)cc1` [Compound 2007, 2,2,2-Trifluoroethyl {(1S)-1-methyl-2-[(4-methylbenzoyl)amino]ethyl}-carbamate], the pest or weed control at 5 ppm in the test on Pyricularia oryzae is 67%. For `Cc1ccc(C(=O)NC[C@@H](NC(=O)OCC(F)(F)F)C(C)(C)C)cc1` [Compound 2005, 2,2,2-Trifluoroethyl ((1S)-2,2-dimethyl-1-{[(4-methylbenzoyl)amino]methyl}-propyl)carbamate], in the test with Pyricularia oryzae, the pest or weed control at 5 ppm came out at 67%. Regarding `O=C1C2CC=CCC2C(=O)N1SC(Cl)(Cl)Cl` (stereo not drawn) [Captan], the pest or weed control at 133.3 ppm in test [1] (setting [6]) was found to be 33%. For the compound `CCOc1ccc(NC(=O)OC(C)C)cc1OCC` [Diethofencarb], in test [1] (setting [6]), the pest or weed control at 12.5 ppm was found to be 0%. Take `CO/C=C(/C(=O)OC)c1ccccc1Oc1cc(Oc2ccccc2C#N)ncn1` [Azoxystrobin]: the Control value in test [4] (treatment concentration 8 ppm) was found to be 92; in test [5] (treatment concentration 8 ppm), 60. As for `COCC(=O)N(c1c(C)cccc1C)C(C)C(=O)OC` (stereo not drawn) [Metalaxyl], the pest or weed control at 10 ppm in test [4] (setting [8]) was 92%; in test [5] (setting [8]), 60%.

Consider `OC(c1ccc(Cl)cc1)(c1cncnc1)c1ccccc1Cl` (stereo not drawn) [Fenarimol], for which the pest or weed control at 4 ppm with Sphaerotheca fuliginea [2] (treatment concentration 4 ppm) is 67%; in the test with Sphaerotheca fuliginea [3] (treatment concentration 4 ppm), 78%. As for `COCC(=O)N(c1c(C)cccc1C)[C@H](C)C(=O)OC` [Metalaxyl M], the Control value in test [4] (treatment concentration 10 ppm) is listed as 83; in test [5] (treatment concentration 10 ppm), 60. For the compound `CC(C)NC(=O)N1CC(=O)N(c2cc(Cl)cc(Cl)c2)C1=O` [Iprodione], the pest or weed control at 50 ppm in test [1] (setting [6]) is 67%.

For the compound `[Cu+2].[OH-].[OH-]` [cupric hydroxide], the Control value came out at 50 in test [4] (setting [11]) and 40 in test [5] (setting [11]). Consider `Cc1ccc(C(=O)NC[C@@H](NC(=O)OCC(F)(F)F)C(C)C)cc1` [Compound 2004, 2,2,2-Trifluoroethyl ((1S)-2-methyl-1-{[(4-methylbenzoyl)amino]methyl}-propyl)carbamate], for which, in the test on Pyricularia oryzae, the pest or weed control at 5 ppm came to 67%. The same measure, in the same setting: the figure for `Cc1ccc(C(=O)NC[C@@H](NC(=O)OC(C)C)C(C)(C)C)cc1` [Compound 2002, Isopropyl ((1S)-2,2-dimethyl-1-{[(4-methylbenzoyl)amino]methyl}propyl)-carbamate] is 33%. Take `O=C(Cc1ccccc1)N/C(=N\OCC1CC1)c1c(C(F)(F)F)ccc(F)c1F` [Cyflufenamid]: the pest or weed control at 1.7 ppm was 33% with Sphaerotheca fuliginea [2] (setting [12]) and 67% with Sphaerotheca fuliginea [3] (setting [12]). With `CO/N=C(/C(=O)OC)c1ccccc1COc1ccccc1C` [Kresoxim-methyl], the pest or weed control at 20 ppm in the test on Sphaerotheca fuliginea [2] is 17%; with Sphaerotheca fuliginea [3], 67%.

Turning to `COc1ccc(C(=CC(=O)N2CCOCC2)c2ccc(Cl)cc2)cc1OC` [Dimethomorph], the pest or weed control at 20 ppm came to 50% in test [4] (setting [10]) and 60% in test [5] (setting [10]). `CC(C)(C)C(O)(CCc1ccc(Cl)cc1)Cn1cncn1` (stereo not drawn) [Tebuconazole]: the pest or weed control at 20 ppm in the test with Sphaerotheca fuliginea [2] was 33%; in the test with Sphaerotheca fuliginea [3] it was 67%.

In the case of `CCNc1nc(CC)c(C(=O)NC(C#N)c2cccs2)s1` (stereo not drawn) [Ethaboxam], the Control value in test [4] (treatment concentration 10 ppm) is listed as 67; in test [5] (treatment concentration 10 ppm) it was 20.

In the case of `Cc1ccc(-c2c(Cl)nc(C#N)n2S(=O)(=O)N(C)C)cc1` [Cyazofamid], the pest or weed control at 9.4 ppm in test [4] (setting [13]) was found to be 67%; in test [5] (setting [13]) it was 40%. For `C[C@@]1(c2ccc(Oc3ccccc3)cc2)OC(=O)N(Nc2ccccc2)C1=O` (racemic) [Famoxadone], the results for the pest or weed control at 10 ppm in test [4] (setting [8]) and in test [5] (setting [8]) were 92% and 0%, respectively. Consider `COC(=O)NC(=S)Nc1ccccc1NC(=S)NC(=O)OC` [Thiophanate-methyl], for which, in test [1] (setting [6]), the pest or weed control at 70 ppm came to 43%. For the compound `Cc1ccc(C(=O)NC[C@@H](NC(=O)OC(C)C)C(C)C)cc1` [Compound 2001, Isopropyl ((1S)-2-methyl-1-{[(4-methylbenzoyl)amino]methyl}propyl)-carbamate], in the test on Pyricularia oryzae, the pest or weed control at 5 ppm is 33%. As for `N#CC(CCc1ccc(Cl)cc1)(Cn1cncn1)c1ccccc1` (stereo not drawn) [Fenbuconazole], the pest or weed control at 4.4 ppm is 27% in the test with Sphaerotheca fuliginea [2] (setting [14]) and 75% with Sphaerotheca fuliginea [3] (setting [14]).

Take `CC(C)(C)C(=O)C(Oc1ccc(Cl)cc1)n1cncn1` (stereo not drawn) [Triadimefon]: the pest or weed control at 10 ppm came to 0% in the test on Sphaerotheca fuliginea [2] and 67% in the test with Sphaerotheca fuliginea [3].
